Experimental data reported in patent publication US20140303092A1 (CHIMERIX, INC., priority 2011, published 2014).

Assay: Study HDP-CDV-201: safety and tolerability (adverse events, laboratory abnormalities, discontinuations)
Type: in vivo, human (adult allogeneic HSCT recipients)
Procedure: Clinical Studies of HDP-CDV were performed and described in detail in the following Examples. For example, HDP-CDV-201 is a placebo-controlled, dose-escalating trial in HSCT CMV (R+) recipients, evaluating the ability of HDP-CDV to prevent or control CMV infection was carried out. Five cohorts were established in which participants or subjects received either placebo or the HDP-CDV orally, in doses ranging from 40 mg weekly (QW) to 200 mg twice weekly (BIW). Subjects who were post-HSCT were enrolled at the time of engraftment and randomized to HDP-CDV or placebo (3 to 1 ratio) and received blinded therapy until approximately 100 day post-transplantation. HDP-CDV doses were 40 mg QW, 100 mg QW, 200 mg QW, 200 mg BIW and 100 mg BIW. Escalation to the next dose was decided by the data monitoring committee after review of the safety data from the previous Cohort. Subjects who developed CMV disease or CMV infection requiring pre-emptive therapy with local standard of care were discontinued from blinded therapy and followed for 4 weeks. Subjects who completed treatment with blinded therapy were followed for 8 weeks post-therapy.
Data from Study HDP-CDV-201 also provided characterization of the safety and tolerability profile of HDP-CDV when administered for the prevention or control of CMV infection in high risk (R^+) post-HSCT adult subjects.
The Safety population (SAFETY) included all randomized subjects who took at least one dose of study treatment. This population was used to summarize safety outcomes based on the treatment actually received, in cases where a subject was treated contrary to the randomization schedule.
The safety and tolerability profile of HDP-CDV, including subject demographics and Baseline characteristics; the AE profile; and laboratory abnormalities of interest were analyzed in the cohorts followed in this investigation.
Subjects completing the treatment period received a full course of study medication; those completing the entire study attended visits through 8 weeks of follow up. Subjects who discontinued treatment may have done so for protocol specified reasons (e.g. development of clinically significant CMV infection requiring preemptive treatment with excluded anti-CMV medications) or for other reasons (e.g., withdrawal, adverse events, loss to follow-up). The disposition of subjects in Study HDP-CDV-201 during the double-blind, placebo-controlled treatment period (through Week 11) is listed by dosing Cohort in TABLE 23.
Adverse events were examined by severity to ensure that all safety signals were identified in this study population. Because of the frequency of events in HSCT recipients, particular attention was given to evaluation of Grade 3 […], 4 (severe), and 5 (fatal) adverse events.
Only those preferred terms for which at least one Grade 3 or higher event was experienced in any treatment group are listed. Cytomegalovirus-related AEs are excluded from this analysis.
HDP-CDV is a lipid conjugate of CDV. Because CDV is known to have adverse effects on renal function and bone marrow, decreased GFR and persistent neutropenia were identified as AEs of special interest. Key renal and hematological (TABLE 30) laboratory parameters were measured and listed below by Study HDP-CDV-201 treatment groups. TABLE 30 includes abnormal levels of serum creatinine, neutrophils, platelets, WBCs, and hemoglobin and includes data at Screening and during the treatment period.
A common metric for unit based dosing of medications is by weight (mg/kg). When the distribution of weights was examined for all subjects participating in the study, the median was 78 kg and the lower 25th percentile weight was approximately 65 kg, which translates to a cut-off of ˜3 mg/kg for a 200 mg total weekly dose. Based upon this approach, a cut-off of 3 mg/kg was used to assess the frequency of diarrhea and associated GI AEs reported for the subjects in Cohorts 3 or 4a (TABLE 40).

Compound: CCCCCCCCCCCCCCCCOCCCOP(=O)(O)COC(CO)Cn1ccc(N)nc1=O (stereo not drawn) [HDP-CDV]
- TEAE Hypokalaemia, Grade 3 (100 mg BIW): 2 (4.0%)
- TEAE Hypokalaemia, Grade 4 (100 mg BIW): 0
- TEAE Hypokalaemia, Grade 5 (100 mg BIW): 0
- TEAE Hyponatraemia, Frequency (100 mg BIW): 1 (2.0%)
- TEAE Hyponatraemia, Grade 2 (100 mg BIW): 0
- TEAE Hyponatraemia, Grade 3 (100 mg BIW): 0
- TEAE Hyponatraemia, Grade 4 (100 mg BIW): 0
- TEAE Hyponatraemia, Grade 5 (100 mg BIW): 0
- TEAE LFT Abnormal, Frequency (100 mg BIW): 2 (4.0%)
- TEAE LFT Abnormal, Grade 2 (100 mg BIW): 1 (2.0%)
- TEAE LFT Abnormal, Grade 3 (100 mg BIW): 0
- TEAE LFT Abnormal, Grade 4 (100 mg BIW): 0
- TEAE LFT Abnormal, Grade 5 (100 mg BIW): 0
- TEAE Leukocytosis, Frequency (100 mg BIW): 2 (4.0%)
- TEAE Leukocytosis, Grade 2 (100 mg BIW): 0
- TEAE Leukocytosis, Grade 3 (100 mg BIW): 1 (2.0%)
- TEAE Leukocytosis, Grade 4 (100 mg BIW): 0
- TEAE Leukocytosis, Grade 5 (100 mg BIW): 0
- TEAE Nausea, Frequency (100 mg BIW): 17 (34.0%)
- TEAE Nausea, Grade 2 (100 mg BIW): 9 (18.0%)
- TEAE Nausea, Grade 3 (100 mg BIW): 2 (4.0%)
- TEAE Nausea, Grade 4 (100 mg BIW): 0
- TEAE Nausea, Grade 5 (100 mg BIW): 0
- TEAE Neutropenia, Frequency (100 mg BIW): 10 (20.0%)
- TEAE Neutropenia, Grade 2 (100 mg BIW): 2 (4.0%)
- TEAE Neutropenia, Grade 3 (100 mg BIW): 5 (10.0%)
- TEAE Neutropenia, Grade 4 (100 mg BIW): 2 (4.0%)
- TEAE Neutropenia, Grade 5 (100 mg BIW): 0
- TEAE Pneumonia, Frequency (100 mg BIW): 5 (10.0%)
- TEAE Pneumonia, Grade 2 (100 mg BIW): 1 (2.0%)
- TEAE Pneumonia, Grade 3 (100 mg BIW): 3 (6.0%)
- TEAE Pneumonia, Grade 4 (100 mg BIW): 0
- TEAE Pneumonia, Grade 5 (100 mg BIW): 1 (2.0%)
- TEAE Pyrexia, Frequency (100 mg BIW): 10 (20.0%)
- TEAE Pyrexia, Grade 2 (100 mg BIW): 4 (8.0%)
- TEAE Pyrexia, Grade 3 (100 mg BIW): 1 (2%)
- TEAE Pyrexia, Grade 4 (100 mg BIW): 0
- TEAE Pyrexia, Grade 5 (100 mg BIW): 0
- TEAE Renal Failure, Frequency (100 mg BIW): 5 (10.0%)
- TEAE Renal Failure, Grade 2 (100 mg BIW): 1 (2.0%)
- TEAE Renal Failure, Grade 3 (100 mg BIW): 1 (2.0%)
- TEAE Renal Failure, Grade 4 (100 mg BIW): 1 (2.0%)
- TEAE Renal Failure, Grade 5 (100 mg BIW): 0
- TEAE Staphylococcal Bacteremia, Frequency (100 mg BIW): 6 (12.0%)
- TEAE Staphylococcal Bacteremia, Grade 2 (100 mg BIW): 2 (4.0%)
- TEAE Staphylococcal Bacteremia, Grade 3 (100 mg BIW): 3 (6.0%)
- TEAE Staphylococcal Bacteremia, Grade 4 (100 mg BIW): 0
- TEAE Staphylococcal Bacteremia, Grade 5 (100 mg BIW): 0
- TEAE Thrombocytopenia, Frequency (100 mg BIW): 7 (14.0%)
- TEAE Thrombocytopenia, Grade 2 (100 mg BIW): 1 (2.0%)
- TEAE Thrombocytopenia, Grade 3 (100 mg BIW): 1 (2.0%)
- TEAE Thrombocytopenia, Grade 4 (100 mg BIW): 2 (4.0%)
- TEAE Thrombocytopenia, Grade 5 (100 mg BIW): 0
- TEAE Vomiting, Frequency (100 mg BIW): 22 (44.0%)
- TEAE Vomiting, Grade 2 (100 mg BIW): 8 (16.0%)
- TEAE Vomiting, Grade 3 (100 mg BIW): 2 (4.0%)
- TEAE Vomiting, Grade 4 (100 mg BIW): 0
- TEAE Vomiting, Grade 5 (100 mg BIW): 0
- subjects requiring treatment with steroids during the study (100 mg BIW): 72%
- subjects who interrupted HDP-CDV due to an adverse event (100 mg BIW Cohort): 17 out of 50
- Subjects Reporting Diarrhea as an AE (100 mg BIW, n = 50): 26 (52.0%)
- Discontinuation: Death (100 mg BIW, active treatment period): 4 (8.0%) Subject n (%)
- Discontinuation: Adverse event (100 mg BIW, active treatment period through Week 11): 8 (16.0%) Subject n (%)
- TEAE ALT increased, Frequency (100 mg QW): 1 (3.7%)
- TEAE ALT increased, Grade 2 (100 mg QW): 0
- TEAE ALT increased, Grade 3 (100 mg QW): 1 (3.7%)
- TEAE ALT increased, Grade 4 (100 mg QW): 0
- TEAE ALT increased, Grade 5 (100 mg QW): 0
- TEAE AML, Recurrent, Frequency (100 mg QW): 0
- TEAE AML, Recurrent, Grade 2 (100 mg QW): 0
- TEAE AML, Recurrent, Grade 3 (100 mg QW): 0
- TEAE AML, Recurrent, Grade 4 (100 mg QW): 0
- TEAE AML, Recurrent, Grade 5 (100 mg QW): 0
- TEAE AST increased, Frequency (100 mg QW): 1 (3.7%)
- TEAE AST increased, Grade 2 (100 mg QW): 1 (3.7%)
- TEAE AST increased, Grade 3 (100 mg QW): 0
- TEAE AST increased, Grade 4 (100 mg QW): 0
- TEAE AST increased, Grade 5 (100 mg QW): 0
- TEAE Abdominal pain, Frequency (100 mg QW): 2 (7.4%)
- TEAE Abdominal pain, Grade 2 (100 mg QW): 0
- TEAE Abdominal pain, Grade 3 (100 mg QW): 1 (3.7%)
- TEAE Abdominal pain, Grade 4 (100 mg QW): 0
- TEAE Abdominal pain, Grade 5 (100 mg QW): 0
- TEAE Acute GVHD, Frequency (100 mg QW): 7 (25.5%)
- TEAE Acute GVHD, Grade 2 (100 mg QW): 4 (14.8%)
- TEAE Acute GVHD, Grade 3 (100 mg QW): 2 (7.3%)
- TEAE Arthralgias, Frequency (100 mg QW): 3 (11.1%)
- TEAE Arthralgias, Grade 2 (100 mg QW): 0
- TEAE Arthralgias, Grade 3 (100 mg QW): 0
- TEAE Arthralgias, Grade 4 (100 mg QW): 0
- TEAE Arthralgias, Grade 5 (100 mg QW): 0
- TEAE Back Pain, Frequency (100 mg QW): 2 (7.4%)
- TEAE Back Pain, Grade 2 (100 mg QW): 0
- TEAE Back Pain, Grade 3 (100 mg QW): 0
- TEAE Back Pain, Grade 4 (100 mg QW): 0
- TEAE Back Pain, Grade 5 (100 mg QW): 0
- TEAE Decreased appetite, Frequency (100 mg QW): 5 (18.5%)
- TEAE Decreased appetite, Grade 2 (100 mg QW): 2 (7.4%)
- TEAE Decreased appetite, Grade 3 (100 mg QW): 0
- TEAE Decreased appetite, Grade 4 (100 mg QW): 0
- TEAE Decreased appetite, Grade 5 (100 mg QW): 0
- TEAE Diarrhea, Frequency (100 mg QW): 8 (29.6%)
- TEAE Diarrhea, Grade 2 (100 mg QW): 3 (11.1%)
- TEAE Diarrhea, Grade 3 (100 mg QW): 0
- TEAE Diarrhea, Grade 4 (100 mg QW): 0
- TEAE Diarrhea, Grade 5 (100 mg QW): 0
- TEAE Fatigue, Frequency (100 mg QW): 3 (11.1%)
- TEAE Fatigue, Grade 2 (100 mg QW): 0
- TEAE Fatigue, Grade 3 (100 mg QW): 0
- TEAE Fatigue, Grade 4 (100 mg QW): 0
- TEAE Fatigue, Grade 5 (100 mg QW): 0
